We go through one substance from article PMC7769561, “Antileishmanial activity of synthetic analogs of the naturally occurring quinolone alkaloid N-methyl-8-methoxyflindersin” (PLoS ONE, 2020).

Data set [1] concerns hMDMs. Nature of the data set: Cytotoxicity in hMDMs (resazurin, 72 h). As to conditions: class by CC50. The method, then: We isolated hMDMs from buffy coats donated by the Institute of Local Science (Biotechnology and Health Innovation, Bogotá, Colombia) and spun them in Lymphoprep density gradient medium (Stem-Cell, Vancouver, Canada).
Next, we added 100 μL of this culture to each quinoline alkaloid–like compound at a concentration of 200, 20, 2, 0.2, and 0.02 μg/mL. […] Cells treated with amphotericin B (Sigma-Aldrich) were used as cell apoptosis (positive) controls. Results were expressed as the medial cytotoxic concentration (CC50) using Prism GraphPad software for nonlinear regression analysis (https://www.graphpad.com/scientific-software/prism/).
(§1) All assays required at least three independently duplicated experiments. We determined cytotoxicity against hMDMs and effectivity in L. (V) panamensis promastigotes according to each treatment’s mortality (compound and concentration) using Eq 1, where the control mean fluorescence intensity (MFI) was 100% viability: Validityinhibition(%)=100−[MIFexposedcells/MIFunexposedcells×100] (1)
(§2) We used GraphPad Prism nonlinear regression analysis to estimate the percentage mortality with regard to CC50 and EC50. […] The antileishmanial activity with regard to promastigotes was classified as active according to Eq 2: Active=EC50<[LC50/2], (2) where LC50 is the median lethal concentration. We also used GraphPad Prism nonlinear regression analysis to determine the intracellular antileishmanial activity (concentration vs. response), depending on the infection (number of infected cells) and parasite burden (number of parasites/cell) obtained in experimental conditions. Parasite inhibition was estimated using Eq 3, where the plate MFI is 100% parasites: Infectioninhibition(%)=100−[(MIFexposedparasites/MIFunexposedparasites×100)] (3)
For orientation: Resazurin is reduced to fluorescent resorufin, in cell work by metabolically active cells.

For data set [2], the system named is L. (V.) panamensis promastigotes. The data set is described as follows: Antileishmanial activity in L. (V.) panamensis promastigotes (resazurin, 72 h). It counts as cell-based, Leishmania (Viannia) panamensis. To be noted: L. (V.) panamensis promastigotes, ± SD. The procedure:
They were treated with quinoline alkaloid–like compounds at a concentration of 100, 10, 1, 0.1, and 0.01 μg/mL for 72 h at 26°C. Next, we determined antileishmanial activity using the resazurin method (Sigma-Aldrich). Promastigotes treated with amphotericin B (Sigma-Aldrich) and pentamidine (Sanofi-Aventis, Gentilly, France) were used as parasite death (positive) controls. Results were expressed as the medial effective concentration (EC50) using Prism GraphPad software for nonlinear regression analysis (https://www.graphpad.com/scientific-software/prism/).
as §1, §2

Data set [3] deals with L. (V.) panamensis (MHOM/COL/87/UA140-EGFP). Nature of the data set: Therapeutic in vivo response in hamsters with experimental cutaneous leishmaniasis. On the set-up: species or system golden hamster (Mesocrisetus auratus). The text has this:
We used a golden hamster (Mesocrisetus auratus) model to evaluate the therapeutic response of synthetic alkaloid compounds 2 and 8. Male and female 6-week-old hamsters with a mean live weight (LW) of 120 g were infected by a dorsal intradermic injection of L. (V.) panamensis (MHOM/COL/87/UA140-EGFP) promastigotes. After the infected hamsters developed ulcers, they were randomly divided into three groups (n = 6 each) and treated topically with 1% ointment formulated from compounds 2 and 8.
(§3) The hamsters were monitored every 4 weeks to assess their appearance and weight and the lesion size. We categorized each compound’s effectiveness pre- and posttreatment as follows: (i) cure (complete disappearance of lesions), (ii) improvement (>10% reduced lesion area), and (iii) therapeutic failure or nonresponse (increased lesion size). The health status was monitored weekly for 3 months (12 weeks) posttreatment. After 3 months, the hamsters were euthanized in a CO2 chamber. We performed histopathological analysis after necropsy of the affected tissues and organs. In addition, we evaluated treatment cytotoxicity using LW monitoring and biochemical parameters (alanine aminotransferase [ALT], creatinine, and blood urea nitrogen [BUN]) pretreatment and 45 days after ointment administration.
The in vivo efficacy of compounds 1, 2, and 8 was expressed as a percentage cure, improvement, or nonresponse compared to the beginning of treatment. Efficacy was evaluated in vivo to compare percentages, the frequency of change, and treatment cytotoxicity in the hamster model. We used GraphPad Prism to determine ROS and NO production and the apoptotic cell percentage. One- or two-way analysis of variance (ANOVA; response–time kinetics) was used to compare treatments after confirming normal data distribution. P < 0.05 was considered statistically significant by comparing untreated cells (experiments on untreated hMDMs) with infected cells (experiments on untreated and treated hMDMs).

Data set [4] can be described thus: Treatment toxicity in hamsters (live weight, ALT, creatinine, BUN). The format is in vivo, golden hamster (Mesocrisetus auratus). To be noted: topical 1% ointment.
Description: as §3

For data set [5], the system named is L. (V.) panamensis-infected hMDMs. Nature of the data set: NO production in L. (V.) panamensis-infected hMDMs (DAF-FM flow cytometry). The format is cell-based, human. To be noted: compound at EC50, 24, 48 and 72 h. The method, then:
Next, we detached the cells with ethylenediaminetetraacetic acid (EDTA)/trypsin (Lonza, MD, USA) and 2',7'-dichlorodihydrofluorescein diacetate (H2DCFDA) tagged on a 5 μM fluorescent tube (Sigma-Aldrich) in order to identify intracellular ROS and/or 4-amino-5-methylamino-2′,7′-difluorofluorescein (DAF-FM; Sigma-Aldrich) for NO production in a 5% CO2 atmosphere for 45 min at 37°C. ROS and NO were quantified using flow cytometry (FACS Canto II) at a wavelength of 480 nm. Untreated cells were used as negative controls, while cells treated with 0.0001% H2O2 and 1 μM phorbol myristate acetate were used as ROS production (positive) controls. LPS (10 ng/mL) and phytohemagglutinin (PHA-M) (10 μL/mL) (Invitrogen) were used as positive controls for NO production.

Data set [6] has the same test system. The data set is described as follows: Transmission electron microscopy of L. (V.) panamensis-infected hMDMs. As to Cell membrane (ultrastructural modification grade): key: -: no alteration/absence; +: low alteration/low presence; ++: alteration/moderate presence; +++: serious disturbance/abundant presence. As to LB (lipid bodies, grade): key: -: no alteration/absence; +: low alteration/low presence; ++: alteration/moderate presence; +++: serious disturbance/abundant presence. As to Mitochondria (ultrastructural modification grade): key: -: no alteration/absence; +: low alteration/low presence; ++: alteration/moderate presence; +++: serious disturbance/abundant presence. As to Nucleus (ultrastructural modification grade): key: -: no alteration/absence; +: low alteration/low presence; ++: alteration/moderate presence; +++: serious disturbance/abundant presence. As to conditions: compound at EC50, 72 h, TEM. It counts as cell-based, human. From the text: This procedure involved including fresh resin and 100–200-nm-wide ultrafine cuts observed by TEM (100X–10.000X) (HITACHI-HU-12; Hitachi, Tokyo, Japan).
The mark [7] stands for this setting: hamsters, topical 1% ointment, 3 months posttreatment, n = 6.

In general, EC50 refers to the midpoint of the concentration-response curve. With “1,2,3,4-tetrahydro(benzo)-3-quinolin-ol [Compound 2]”, the “Cytotoxicity class toward hMDMs” value in data set [1] is reported as “high (high if CC50 < 100 μg/mL)”. In data set [2], the “EC50 Intracellular promastigotes” value stood at 3.4 ± 1.1 µg/mL. The EC50 in data set [2] (read-out: EC50 Intracellular promastigotes (converted)) was 17 µM. Moreover, the “Histopathologic analysis of the skin, cured hamsters” value in data set [3] (hamsters cured by treatment, hematoxylin/eosin) was “moderate orthokeratotic hyperkeratosis and low mononuclear leukocyte infiltration”. Also, in data set [3] (hamsters showing improvement, hematoxylin/eosin), the “Histopathologic analysis of the skin, hamsters showing improvement” value was “severe leukocyte infiltratation and abundant L. (V.) panamensis being phagocytosed by hMDMs”. Further, the “Lesion size during treatment” value in data set [3] (hamsters, topical 1% ointment) is recorded as “significantly reduced lesions”. Besides, in data set [3] (setting [7]), the “Improvement (reduced lesion size), percentage of the experimental group” value was determined as 66.6% and the “Total cure (healing), percentage of the experimental group” value worked out at 33.3%. For the same substance, in data set [4], the Cytotoxicity-related clinical manifestations entry is recorded as “No cytotoxicity-related clinical manifestations” and the Live weight posttreatment entry was “no evident changes during treatment”. For the same substance, the “NO production compared to untreated infected hMDMs” value in data set [5] is “do not modulate the induction of NO production”. For the same substance, in data set [6], the “Cell membrane (ultrastructural modification grade)” value is “-”; the “LB (lipid bodies, grade)” value is listed as “+++”; the “Mitochondria (ultrastructural modification grade)” value is listed as “+”; the “Nucleus (ultrastructural modification grade)” value is reported as “-”. In data set [6], the “PV (description)” value is recorded as “Multiple parasites per vacuole”; the “PV (parasitophorous vacuoles, grade)” value is reported as “+”; the “Parasites (grade)” value is on record as “++”; the “Vacuoles (ultrastructural modification grade)” value is reported as “-”.
